# According to ChEMBL document CHEMBL3822420, “New peptide deformylase inhibitors design, synthesis and pharmacokinetic assessment” (Bioorg Med Chem Lett, 2016):
# Tests used:
# Rattus norvegicus [1] = assay: (§1) AUC (0 to t) in Sprague-Dawley rat at 2 mg/kg, iv; assay type: ADME, organism-based; details: in vivo
# [2] = Tmax in Sprague-Dawley rat at 2 mg/kg, iv; assay type: ADME, organism-based; details: in vivo
# [3] = Tmax in Sprague-Dawley rat at 10 mg/kg, po; assay type: ADME, organism-based; details: in vivo
# [4] = Cmax in Sprague-Dawley rat at 2 mg/kg, iv; assay type: ADME, organism-based; parameters: dose 2 mg/kg, route intravenous; details: in vivo
# [5] = Cmax in Sprague-Dawley rat at 10 mg/kg, po; assay type: ADME, organism-based; parameters: dose 10 mg/kg, route oral; details: in vivo
# Staphylococcus aureus [6] = assay: Antibacterial activity against methicillin-resistant Staphylococcus aureus 14-5; assay type: functional
# Staphylococcus aureus [7] = assay: Antibacterial activity against methicillin-sensitive Staphylococcus aureus 14-1; assay type: functional
# Staphylococcus aureus [8] = assay: Antibacterial activity against methicillin-sensitive Staphylococcus aureus 14-2; assay type: functional
# Staphylococcus aureus [9] = assay: Antibacterial activity against methicillin-sensitive Staphylococcus aureus 14-3; assay type: functional
# Staphylococcus aureus [10] = assay: Antibacterial activity against methicillin-sensitive Staphylococcus aureus 14-4; assay type: functional
# [11] = tested on: Staphylococcus epidermidis; assay: Antibacterial activity against methicillin-resistant Staphylococcus epidermidis 14-4; assay type: functional
# [12] = tested on: Staphylococcus epidermidis; assay: Antibacterial activity against methicillin-sensitive Staphylococcus epidermidis 14-1; assay type: functional
# [13] = tested on: Staphylococcus epidermidis; assay: Antibacterial activity against methicillin-sensitive Staphylococcus epidermidis 14-2; assay type: functional
# [14] = tested on: Staphylococcus epidermidis; assay: Antibacterial activity against methicillin-sensitive Staphylococcus epidermidis 14-3; assay type: functional
# Enterococcus faecalis [15] = assay: Antibacterial activity against Enterococcus faecalis 14-1; assay type: functional
# Enterococcus faecalis [16] = assay: Antibacterial activity against Enterococcus faecalis 14-2; assay type: functional
# Enterococcus faecalis [17] = assay: Antibacterial activity against Enterococcus faecalis 14-3; assay type: functional
# Enterococcus faecalis [18] = assay: Antibacterial activity against Enterococcus faecalis 14-5; assay type: functional
# Escherichia coli [19] = assay: Antibacterial activity against Escherichia coli 14-1; assay type: functional
# Escherichia coli [20] = assay: Antibacterial activity against Escherichia coli 14-2; assay type: functional
# Escherichia coli [21] = assay: Antibacterial activity against Escherichia coli 14-1 expressing extended-spectrum beta-lactamase; assay type: functional
# Escherichia coli [22] = assay: Antibacterial activity against Escherichia coli 14-2 expressing extended-spectrum beta-lactamase; assay type: functional
# [23] = AUC (0 to t) in Sprague-Dawley rat at 10 mg/kg, po; assay type: ADME, organism-based; details: in vivo
# Rattus norvegicus [24] = assay: (§2) AUC (0 to infinity) in Sprague-Dawley rat at 2 mg/kg, iv; assay type: ADME, organism-based; parameters: dose 2 mg/kg, route intravenous, time infinity; details: in vivo
# [25] = AUC (0 to infinity) in Sprague-Dawley rat at 10 mg/kg, po; assay type: ADME, organism-based; parameters: dose 10 mg/kg, time infinity, route oral; details: Sprague-Dawley, in vivo
# [26] = Half life in Sprague-Dawley rat at 2 mg/kg, iv; assay type: ADME, organism-based; details: in vivo
# [27] = Half life in Sprague-Dawley rat at 10 mg/kg, po; assay type: ADME, organism-based; details: Sprague-Dawley, in vivo
# [28] = MRT (0 to t) in Sprague-Dawley rat at 2 mg/kg, iv; assay type: ADME, organism-based; details: in vivo
# [29] = MRT (0 to t) in Sprague-Dawley rat at 10 mg/kg, po; assay type: ADME, organism-based; details: in vivo
# [30] = Clearance in Sprague-Dawley rat at 2 mg/kg, iv; assay type: ADME, organism-based; details: in vivo
# [31] = Clearance in Sprague-Dawley rat at 10 mg/kg, po; assay type: ADME, organism-based; details: Sprague-Dawley, in vivo
# [32] = Volume of distribution at steady state in Sprague-Dawley rat at 2 mg/kg, iv; assay type: ADME, organism-based; details: in vivo, read-out: Vdss
# Rattus norvegicus [33] = assay: Volume of distribution at steady state in Sprague-Dawley rat at 10 mg/kg, po; assay type: ADME, organism-based; details: in vivo
# [34] = Oral bioavailability in Sprague-Dawley rat at 10 mg/kg; assay type: ADME, organism-based; details: in vivo
# [35] = as §1; assay type: ADME, organism-based; details: Sprague-Dawley, in vivo
# Staphylococcus aureus [36] = assay: Antibacterial activity against methicillin-resistant Staphylococcus aureus 14-1; assay type: functional
# Staphylococcus aureus [37] = assay: Antibacterial activity against methicillin-resistant Staphylococcus aureus 14-2; assay type: functional
# Staphylococcus aureus [38] = assay: Antibacterial activity against methicillin-resistant Staphylococcus aureus 14-4; assay type: functional
# [39] = tested on: Staphylococcus epidermidis; assay: Antibacterial activity against methicillin-resistant Staphylococcus epidermidis 14-1; assay type: functional
# [40] = tested on: Staphylococcus epidermidis; assay: Antibacterial activity against methicillin-resistant Staphylococcus epidermidis 14-2; assay type: functional
# [41] = tested on: Staphylococcus epidermidis; assay: Antibacterial activity against methicillin-resistant Staphylococcus epidermidis 14-3; assay type: functional
# [42] = as §2; assay type: ADME, organism-based; parameters: dose 2 mg/kg, route intravenous, time infinity; details: Sprague-Dawley, in vivo
SMILES,Tmax [2] [min],Tmax [3] [h],Cmax [4] [ng/mL],Cmax [5] [ng/mL],MIC (Staphylococcus aureus [6]) [µg/mL],MIC (Staphylococcus aureus [7]) [µg/mL],MIC (Staphylococcus aureus [8]) [µg/mL],MIC (Staphylococcus aureus [9]) [µg/mL],MIC (Staphylococcus aureus [10]) [µg/mL],MIC [11] [µg/mL],MIC [12] [µg/mL],MIC [13] [µg/mL],MIC [14] [µg/mL],MIC (Enterococcus faecalis [15]) [µg/mL],MIC (Enterococcus faecalis [16]) [µg/mL],MIC (Enterococcus faecalis [17]) [µg/mL],MIC (Enterococcus faecalis [18]) [µg/mL],MIC (Escherichia coli [19]) [µg/mL],MIC (Escherichia coli [20]) [µg/mL],MIC (Escherichia coli [21]) [µg/mL],other results
CCCC[C@H](CN(O)C=O)C(=O)N1CC2(CC2)C[C@H]1C(=O)Nc1ncc(C)s1,4.8,0.58,1090,630,< 0.008,< 0.008,< 0.008,< 0.008,< 0.008,< 0.008,< 0.008,< 0.008,< 0.008,0.125,0.5,0.5,0.25,32,32,0.125,AUCt (Rattus norvegicus [1]): 653 ng·h/mL; MIC (Escherichia coli [22]): 32 µg/mL; AUC(0-t) [23]: 2080 ng·h/mL; AUC (Rattus norvegicus [24]): 653 ng·h/mL; AUC(0-inf) [25]: 2130 ng·h/mL; half-life [26]: 1.14 h; half-life [27]: 5 h; MRT last [28]: 1.74 h; MRT last [29]: 4.42 h; clearance [30]: 23.5 mL/min/kg; CL/F [31]: 82.3 mL/min/kg; Vd [32]: 3.6 L/kg; Vdss (Rattus norvegicus [33]): 36.5 L/kg; bioavailability [34]: 30%
CCCC[C@H](CN(O)C=O)C(=O)N1CC2(CC2)C[C@H]1C(=O)Nc1cc(C(C)(C)C)on1,4.8,0.58,930,860,0.06,0.125,0.125,0.25,0.06,0.03,0.03,0.125,0.015,0.5,0.5,0.5,> 128,64,64,1,AUC(0-t) [35]: 1140 ng·h/mL; MIC (Staphylococcus aureus [36]): 0.06 µg/mL; MIC (Staphylococcus aureus [37]): 0.06 µg/mL; MIC (Staphylococcus aureus [38]): < 0.008 µg/mL; MIC [39]: 0.03 µg/mL; MIC [40]: 0.03 µg/mL; MIC [41]: 0.015 µg/mL; MIC (Escherichia coli [22]): 64 µg/mL; AUC(0-t) [23]: 1950 ng·h/mL; AUC(0-inf) [42]: 1140 ng·h/mL; AUC(0-inf) [25]: 1980 ng·h/mL; half-life [26]: 1.23 h; half-life [27]: 4.52 h; MRT last [28]: 1.5 h; MRT last [29]: 3.43 h; clearance [30]: 29.6 mL/min/kg; CL/F [31]: 90.6 mL/min/kg; Vd [32]: 2.7 L/kg; Vdss (Rattus norvegicus [33]): 36.2 L/kg; bioavailability [34]: 35%
CCCC[C@H](CN(O)C=O)C(=O)N1CC2(CC2)C[C@H]1c1nc2ccccc2[nH]1,4.8,0.25,1740,1680,0.5,2,2,2,2,1,0.5,2,0.5,8,8,8,64,32,32,0.5,AUC(0-t) [35]: 1260 ng·h/mL; MIC (Staphylococcus aureus [36]): 1 µg/mL; MIC (Staphylococcus aureus [37]): 2 µg/mL; MIC (Staphylococcus aureus [38]): 2 µg/mL; MIC [39]: 1 µg/mL; MIC [40]: 1 µg/mL; MIC [41]: 0.5 µg/mL; MIC (Escherichia coli [22]): 32 µg/mL; AUC(0-t) [23]: 2340 ng·h/mL; AUC(0-inf) [42]: 1270 ng·h/mL; AUC(0-inf) [25]: 2380 ng·h/mL; half-life [26]: 5.23 h; half-life [27]: 4.46 h; MRT last [28]: 1.91 h; MRT last [29]: 4.13 h; clearance [30]: 26.4 mL/min/kg; CL/F [31]: 70.9 mL/min/kg; Vd [32]: 3 L/kg; Vdss (Rattus norvegicus [33]): 27.4 L/kg; bioavailability [34]: 37%
